Test results as given in patent US6500849B1, “1-alkyl-, 1-alkenyl-, and 1-alkynylaryl-2-amino 1,3-propanediols and related compounds” (Aventis Pharmaceuticals Inc., priority 1990, dated 2002).
Values after ≈ are worked out from the molar mass of the structure shown.

What was measured:
[1] = tested on: female Swiss Webster mice; experiment: TPA-induced ear edema assay; format: in vivo; details: 10 μg/ear topical, after about 5 hours
Method: In the TPA-induced ear edema assay, TPA (12-O-tetradecanoylphorbol-13-acetate) was dissolved in 30/70 propylene glycol/ethanol and was applied to the right ear of groups of 6 female Swiss Webster mice, which were housed together in a cage under standard conditions for 1 week prior to use with food and water ad lib, at a volume of 20 μl so that a total of 10 μg of TPA is delivered to the inner and outer surfaces of the ear. The test compound was dissolved in the vehicle and was applied to the right ear (the inner and outer surface) at a volume of 20 μl so that a total of 10 μg of the compound was delivered to the ear. After about 5 hours, the animals were sacrificed, a 4 mm diameter plug was taken from each ear and weighed. The difference between the right and left ear plug weights for each animal was determined. The antiinflammatory activity of the test compound is expressed as the mean percent change in the ear plug weight of the treated animals compared to the mean percent change in the plug weight of the control animals.

Protein kinase C = Protein kinase C assay (32P incorporation into Type III histone); format: biochemical, rat; details: for IC50: rat brain protein kinase C, phosphatidylserine/diacylglycerol stimulated, read-out: Protein Kinase Inhibitory Activity IC50
Method: (see U. Kikkawa, et al., Biochemical and Biophysical Research Communications, 135, 636 (1986) and R. M. Bell, et al. “Methods in Enzymology, Hormone Action,” Part J, P.M. Conn, Ed., Academic Press, Inc., New York, N.Y. 1986, page 353). Protein kinase C enzyme extract was prepared from the brain of male Wistar rats weighing 180 to 200 g and purified by the method of U. Kikkawa, et al., ibid. 636. The purified extract was stored at −80° C., and aliquots were used in the protein kinase C assay performed by a modification of the method of R. M. Bell, et al., ibid. al 354. To perform the assay, duplicate aliquots of duplicate samples are employed. Basal or unstimulated protein kinase C, phosphatidylserine/diacylglycerol stimulated protein kinase C, and test samples are run in each assay. […] The assay tubes were allowed to warm to 25° C. and an 8 μl mixture of adenosine 5′-triphosphate (100 μM) and ^32P-adenosine triphosphate (1 to 2×10^5 counts per minute) was added to each tube for a final volume of 80 μl per tube. After 2 min, the reaction (the incorporation of phosphorous into Type III histone) was terminated by spotting the assay mixture on phosphocellulose paper. The spots are cut out of the paper and the radioactivity (counts per min) of each spot was determined in a scintillation counter.

male CFW mice = experiment: Dark avoidance assay (reversal of scopolamine induced memory deficits); format: in vivo; details: sc, scopolamine 3.0 mg/kg sc
Method: In this assay, three groups of 15 male CFW mice were used—a vehicle/vehicle control group, a scopolamine/vehicle group, and a scopolamine/drug group. Thirty minutes prior to training, the vehicle/vehicle control group received normal saline subcutaneously, and the scopolamine/vehicle and scopolamine/drug groups received scopolamine subcutaneously (3.0 mg/kg, administered as scopolamine hydrobromide). Five minutes prior to training, the vehicle/vehicle control and scopolamine/vehicle groups received distilled water and the scopolamine/drug group received the test compound in distilled water.
The training/testing apparatus consisted of a plexiglass box approximately 48 cm long, 30 cm high and tapering from 26 cm wide at the top to 3 cm wide at the bottom. The interior of the box was divided equally by a vertical barrier into a light compartment (illuminated by a 25-watt reflector lamp suspended 30 cm from the floor) and a dark compartment (covered). There was a hole at the bottom of the barrier 2.5 cm wide and 6 cm tall and a trap door which could be dropped to prevent an animal from passing between the two compartments. […]
At the end of the pretreatment interval, an animal was placed in the light chamber directly under the light fixture, facing away from the door to the dark chamber. […] The latency is seconds for each mouse was recorded.
The test day latency in seconds for each animal was recorded and the animals were then discarded.
The high degree of variability (due to season of the year, housing conditions, and handling) found in one trial passive avoidance paradigm is well known. To control for this fact, individual cutoff (CO) values were determined for each test, compensating for interest variability. […]
The results of the dark avoidance test are expressed as the number of animals per group (%) in which this scopolamine induced memory deficit is blocked as measured by an increase in the latency period.

Aspergillus Niger = experiment: Antifungal assay (microtitration technique); format: cell-based; details: Aspergillus Niger strain 500/284, 5 days at 30° C.; for MIC: 120 h
Method: (§1) The microtiter plate is prepared as follows: The wells are each filled (2 rows/strain) with 50 μl neopeptone-dextrose broth (12-channel pipette). In addition, one row/strain is coated with 50 μl yeast-nitrogen base/well for yeasts and moulds. […] All wells are then inoculated with 150 μl standardized organism suspension (yeasts: 1×10^3 organisms/ml suspension; cutaneous fungi and moulds: 1.6×10^5 organisms/ml suspension); the total volume is 200 μl per well. There is also a growth control (inoculated, not medicated), a solvent control (inoculated, not medicated, containing solvent as in medicated rows) and a negative control (not inoculated, not medicated). Incubation for 5 days at 30° C. is followed by photometric evaluation. The obtained measurements are checked visually (macroscopically and microscopically) and corrected where necessary. Criteria for Evaluation of the Antimycotic Effect a. Photometric measurements (matrix method) b. Growth, macroscopic evaluation c. Growth, microscopic evaluation (inversion light microscope, magn. 64×).

Candida Albicans = experiment: Antifungal assay (microtitration technique); format: cell-based; details: Candida Albicans strain 200/175, 5 days at 30° C.; for MIC: 120 h
Method: as §1

Microsporum Canis = experiment: Antifungal assay (microtitration technique); format: cell-based; details: Microsporum Canis strain 150/353, 5 days at 30° C.; for MIC: 120 h
Method: as §1

[2] = tested on: Trichophyton Mentagrophytes; experiment: Antifungal assay (microtitration technique); format: cell-based; details: Trichophyton Mentagrophytes strain 100/25, 5 days at 30° C.; for MIC: 120 h
Method: as §1

Trichophyton Rubrum = experiment: Antifungal assay (microtitration technique); format: cell-based; details: Trichophyton Rubrum strain 101/85, 5 days at 30° C.; for MIC: 120 h
Method: as §1

Trichophyton Vaginalis = experiment: Antifungal assay (microtitration technique); format: cell-based; details: Trichophyton Vaginalis strain 111/216, 5 days at 30° C.; for MIC: 120 h
Method: as §1

Bact. fragilis = experiment: Anerobic antibacterial assay (agar dilution, Wilkins-Chalgren agar); format: cell-based; details: anaerobic, 48 hours at 37° C.
Bact. ovatus = experiment: as above; format: cell-based; details: Bact. ovatus 103; anaerobic; 48 hours at 37° C.
Bact. vulgatus = experiment: as above; format: cell-based; details: Bact. vulgatus 1446; anaerobic; 48 hours at 37° C.
Bact. thetaiotaom. = experiment: as above; format: cell-based; details: anaerobic, 48 hours at 37° C.
Bact. distasonis = experiment: as above; format: cell-based; details: Bact. distasonis 1366; anaerobic; 48 hours at 37° C.
Fusobact. varium = experiment: as above; format: cell-based; details: anaerobic, 48 hours at 37° C.
Spaeroph. freundii = experiment: as above; format: cell-based; details: Spaeroph. freundii 1369; anaerobic; 48 hours at 37° C.
Peptostr. anaerobius = experiment: as above; format: cell-based; details: Peptostr. anaerobius 932; anaerobic; 48 hours at 37° C.
Propionibact. acnes = experiment: as above; format: cell-based; details: anaerobic, 48 hours at 37° C.
Clost. tetani = experiment: as above; format: cell-based; details: Clost. tetani 19406; anaerobic; 48 hours at 37° C.
Clost. perfringens = experiment: microbe, parasite or virus in culture; format: cell-based; details: Clost. perfringens 194; anaerobic; 48 hours at 37° C.

## CCCCCCCCCCc1cccc(C(O)C(N)CO)n1 (stereo not drawn) [threo-2-amino-1-(6-decyl)-2-pyridinyl)-1,3-propanediol] [threo-2-Amino-1-(6-Decyl-2-pyridinyl)-1,3-dihydroxypropane]
[1]
  Antiinflammatory Activity Percent Decrease in Ear Plug Weight at 10 μg/ear: 30%
Protein kinase C
  IC50: 25 µM

## CCCCCCCCCCC=Cc1cccc(C(O)C(CO)NC(C)=O)n1 (stereo not drawn) [cis-erythro-N-{1-[6-(1-Dodecenyl)-2-pyridinyl]-1,3-dihydroxy-2-propanyl}acetamide]
Protein kinase C; @ 100 μM
  Protein Kinase Inhibitory Activity, percent inhibition at a single concentration: 66% @ 100 μM

## CCCCCCCCC#Cc1cccc(C(O)C(NC(C)=O)C(=O)OCC)n1 (stereo not drawn) [Ethyl erythro-2-acetamido-3-[6-(1-Decynyl)-2-pyridinyl]-3-hydroxypropionate]
Male CFW mice; Dose 3.0 mg/kg
  Percent of Animals with Scopolamine Induced Memory Deficit Reversal: 27%

## CCCCCCCCCCCCc1cccc(C(O)C(N)CO)n1 (stereo not drawn) [erythro-2-Amino-1-(6-Dodecyl-2-pyridinyl)-1,3-propanediol]
[1]
  Antiinflammatory Activity Percent Decrease in Ear Plug Weight at 10 μg/ear: 24%
Protein kinase C
  IC50: 8.5 µM

## Cc1cc(C2CCCCC2)n(O)c(=O)c1 [Cyclopirox, reference compound]
Aspergillus Niger
  MIC: 0.97 µg/mL (≈ 4.68 µM)
Candida Albicans
  MIC: 1.95 µg/mL (≈ 9.41 µM)
Microsporum Canis
  MIC: 1.95 µg/mL (≈ 9.41 µM)
[2]
  MIC: 1.95 µg/mL (≈ 9.41 µM)
Trichophyton Rubrum
  MIC: 1.95 µg/mL (≈ 9.41 µM)
Trichophyton Vaginalis
  MIC: 15.6 µg/mL (≈ 75.4 µM)

## CCCCCCCCCCC#Cc1cccc(C(O)C(NC(C)=O)C(=O)OCC)n1 (stereo not drawn) [Ethyl erythro-2-acetamido-3-[6-(1-Dodecynyl)-2-pyridinyl]-3-hydroxypropionate]
[1]
  Antiinflammatory Activity Percent Decrease in Ear Plug Weight at 10 μg/ear: 50%
Protein kinase C
  IC50: 29 µM

## CNC(=O)Oc1ccc2c(c1)[C@]1(C)CCN(C)[C@@H]1N2C [physostigmine, reference compound]
Male CFW mice; Dose 0.31 mg/kg
  Percent of Animals with Scopolamine Induced Memory Deficit Reversal: 20%

## CCCCCCCCC#Cc1cccc(C(O)C(CO)NC(C)=O)n1 (stereo not drawn) [erythro-N-{1-[6(1-Decynyl)-2-pyridinyl]-1,3-dihydroxy 2-propanyl}acetamide]
Male CFW mice; Dose 3.0 mg/kg
  Percent of Animals with Scopolamine Induced Memory Deficit Reversal: 33%

## CCCCCCCCCCC#Cc1ccc(C(O)C(N)CO)s1 (stereo not drawn) [erythro-2-Amino-1-[5-(1-Dodecynyl)-2-thienyl]-1,3-propanediol]
Bact. fragilis; Bact. fragilis 312
  Antibacterial activity (MIC, mg/l): 6.25 mg/L
Bact. fragilis; Bact. fragilis 960
  Antibacterial activity (MIC, mg/l): 6.25 mg/L
Bact. fragilis; Bact. fragilis 1313
  Antibacterial activity (MIC, mg/l): 6.25 mg/L
Bact. fragilis; Bact. fragilis 17390
  Antibacterial activity (MIC, mg/l): 3.13 mg/L
Bact. fragilis; Bact. fragilis 18125
  Antibacterial activity (MIC, mg/l): 3.13 mg/L
Bact. fragilis; Bact. fragilis 19016
  Antibacterial activity (MIC, mg/l): 6.25 mg/L
Bact. ovatus
  Antibacterial activity (MIC, mg/l): 3.13 mg/L
Bact. vulgatus
  Antibacterial activity (MIC, mg/l): 3.13 mg/L
Bact. thetaiotaom.; Bact. thetaiotaom. 123
  Antibacterial activity (MIC, mg/l): 3.13 mg/L
Bact. thetaiotaom.; Bact. thetaiotaom. 1428
  Antibacterial activity (MIC, mg/l): 6.25 mg/L
Bact. thetaiotaom.; Bact. thetaiotaom. 1445
  Antibacterial activity (MIC, mg/l): 3.13 mg/L
Bact. distasonis
  Antibacterial activity (MIC, mg/l): 3.13 mg/L
Fusobact. varium; Fusobact. varium 3085
  Antibacterial activity (MIC, mg/l): 6.25 mg/L
Fusobact. varium; Fusobact. varium 5262
  Antibacterial activity (MIC, mg/l): 3.13 mg/L
Spaeroph. freundii
  Antibacterial activity (MIC, mg/l): 1.56 mg/L
Peptostr. anaerobius
  Antibacterial activity (MIC, mg/l): 6.25 mg/L
Propionibact. acnes; Propionibact. acnes 6919
  Antibacterial activity (MIC, mg/l): 3.13 mg/L
Propionibact. acnes; Propionibact. acnes 6922
  Antibacterial activity (MIC, mg/l): 1.56 mg/L
Clost. tetani
  Antibacterial activity (MIC, mg/l): 6.25 mg/L
Clost. perfringens
  Antibacterial activity (MIC, mg/l): 6.25 mg/L
Aspergillus Niger
  Antifungal Activity MIC: 3.900 µg/mL
Candida Albicans
  Antifungal Activity MIC: 1.950 µg/mL
Microsporum Canis
  Antifungal Activity MIC: 3.900 µg/mL
[2]
  Antifungal Activity MIC: 3.900 µg/mL
Trichophyton Rubrum
  Antifungal Activity MIC: 15.625 µg/mL
Trichophyton Vaginalis
  Antifungal Activity MIC: 15.625 µg/mL

## Clc1ccccc1C(c1ccccc1)(c1ccccc1)n1ccnc1 [Clotrimazol, reference compound]
Aspergillus Niger
  MIC: 1.95 µg/mL (≈ 5.65 µM)
Candida Albicans
  MIC: 3.9 µg/mL (≈ 11.3 µM)
Microsporum Canis
  MIC: 0.06 µg/mL (≈ 0.174 µM)
[2]
  MIC: 0.97 µg/mL (≈ 2.81 µM)
Trichophyton Rubrum
  MIC: 0.24 µg/mL (≈ 0.696 µM)
Trichophyton Vaginalis
  MIC: 62.5 µg/mL (≈ 181 µM)
